# ChEMBL document CHEMBL1201862, “PubChem BioAssay data set” (2004)
# The source made the active and inactive calls.
# Key:
# [1] = general mammalian cell viability loss – inhibitor set, cherry-pick, set 2, cytotoxicity control for miR-122 modulator project, dose response (AID 720697); assay type: functional, cell-based
# [2] = Luminescence Cell-Based Dose Response to Identify Activators of Luciferase Translation or Activity in H4-C Neuroglioblastoma Cells. [Related pubchem assays: 1829 (Project Summary), 1814 (Primary HTS)]; assay type: functional
# cells [3] = assay: cells
# [4] = Luminescence Cell-Based Dose Response HTS to Identify Activators of Luciferase Translation or Activity in H4 […] Cells. [Related pubchem assays: 1829 (Project Summary), 1814 (Primary HTS)]; assay type: functional
# H4 = assay: Luminescence Cell-Based Dose Response HTS to Identify Activators of 5'UTR Stem-Loop Driven Prion Protein mRNA Translation in H4 Neuroglioblastoma Cells. [Related pubchem assays: 1829 (Project Summary), 1814 (Primary HTS)]; assay type: functional; conditions: Homo sapiens
# [5] = target: T1, Polyadenylate-binding protein 1 (Homo sapiens, UniProt P11940); assay: MLLE domain peptide-binding blockers, IC50 – biochemical, fluorescence polarization, FITC-PAM2 peptide, dose response (AID 602259); assay type: functional; conditions: read-out: IC50_Mean
# T1 sequence (P11940 whole entry, the tested form may be a part): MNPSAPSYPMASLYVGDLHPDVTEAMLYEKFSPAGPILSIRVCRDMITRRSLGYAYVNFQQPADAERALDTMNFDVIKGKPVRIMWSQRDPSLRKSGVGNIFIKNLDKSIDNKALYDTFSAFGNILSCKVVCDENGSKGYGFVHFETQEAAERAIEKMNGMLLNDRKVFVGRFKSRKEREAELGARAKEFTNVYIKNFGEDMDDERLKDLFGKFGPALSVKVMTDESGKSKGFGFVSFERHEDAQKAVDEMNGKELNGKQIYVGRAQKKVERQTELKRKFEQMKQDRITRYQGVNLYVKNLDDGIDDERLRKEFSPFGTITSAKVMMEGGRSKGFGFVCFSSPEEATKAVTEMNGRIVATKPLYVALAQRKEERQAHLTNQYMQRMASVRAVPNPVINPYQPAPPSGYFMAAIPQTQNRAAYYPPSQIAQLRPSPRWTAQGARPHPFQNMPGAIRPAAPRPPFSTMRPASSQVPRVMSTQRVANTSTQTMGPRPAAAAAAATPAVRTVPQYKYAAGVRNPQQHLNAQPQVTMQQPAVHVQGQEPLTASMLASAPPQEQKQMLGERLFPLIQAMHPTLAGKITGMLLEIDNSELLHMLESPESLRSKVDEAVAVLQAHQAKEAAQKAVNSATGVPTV
# [6] = Luminescence Cell-Based Dose Response to Identify Activators of 5'UTR Stem-Loop Driven Prion Protein mRNA Translation in H4-C Neuroglioblastoma Cells. [Related pubchem assays: 1829 (Project Summary), 1814 (Primary HTS)]; assay type: functional
# [7] = target: Oxysterols receptor LXR-beta (Homo sapiens, UniProt P55055); assay type: functional, cell-based;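 also: Cell-based luminescence dose-response assay of agonist activity at LXR, run as a confirmatory counterscreen to a daf-12 agonist screen; HEK293 cells with Gal4-LXR fusion and GAL4-driven luciferase reporter; agonist potency from rising luciferase signal of a Gal4-LXR reporter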
# [8] = Luminescence Cell-Based Dose Confirmation to Identify Activators of 5'UTR Stem-Loop Driven Alpha-Synuclein mRNA Translation in H4 Neuroglioblastoma Cells. [Related pubchem assays: 1829 (Project Summary), 1814 (Primary HTS)]; assay type: functional
# [9] = target: T1, Polyadenylate-binding protein 1; assay: MLLE binding blockers, Cy5 peptide tracer – biochemical, fluorescence polarization, Cy5-PAM2 peptide, secondary, miRNA deadenylation inhibitor project, dose response (AID 602260); assay type: functional; conditions: read-out: IC50_Mean
# Beta-galactosidase = Beta-galactosidase (Escherichia coli, UniProt Q8VNN2); assay: Dose response counterscreen for EBI2 assay utilizing the enzyme, b-galactosidase.; assay type: functional
# Chain of Beta-galactosidase (Q8VNN2 whole entry): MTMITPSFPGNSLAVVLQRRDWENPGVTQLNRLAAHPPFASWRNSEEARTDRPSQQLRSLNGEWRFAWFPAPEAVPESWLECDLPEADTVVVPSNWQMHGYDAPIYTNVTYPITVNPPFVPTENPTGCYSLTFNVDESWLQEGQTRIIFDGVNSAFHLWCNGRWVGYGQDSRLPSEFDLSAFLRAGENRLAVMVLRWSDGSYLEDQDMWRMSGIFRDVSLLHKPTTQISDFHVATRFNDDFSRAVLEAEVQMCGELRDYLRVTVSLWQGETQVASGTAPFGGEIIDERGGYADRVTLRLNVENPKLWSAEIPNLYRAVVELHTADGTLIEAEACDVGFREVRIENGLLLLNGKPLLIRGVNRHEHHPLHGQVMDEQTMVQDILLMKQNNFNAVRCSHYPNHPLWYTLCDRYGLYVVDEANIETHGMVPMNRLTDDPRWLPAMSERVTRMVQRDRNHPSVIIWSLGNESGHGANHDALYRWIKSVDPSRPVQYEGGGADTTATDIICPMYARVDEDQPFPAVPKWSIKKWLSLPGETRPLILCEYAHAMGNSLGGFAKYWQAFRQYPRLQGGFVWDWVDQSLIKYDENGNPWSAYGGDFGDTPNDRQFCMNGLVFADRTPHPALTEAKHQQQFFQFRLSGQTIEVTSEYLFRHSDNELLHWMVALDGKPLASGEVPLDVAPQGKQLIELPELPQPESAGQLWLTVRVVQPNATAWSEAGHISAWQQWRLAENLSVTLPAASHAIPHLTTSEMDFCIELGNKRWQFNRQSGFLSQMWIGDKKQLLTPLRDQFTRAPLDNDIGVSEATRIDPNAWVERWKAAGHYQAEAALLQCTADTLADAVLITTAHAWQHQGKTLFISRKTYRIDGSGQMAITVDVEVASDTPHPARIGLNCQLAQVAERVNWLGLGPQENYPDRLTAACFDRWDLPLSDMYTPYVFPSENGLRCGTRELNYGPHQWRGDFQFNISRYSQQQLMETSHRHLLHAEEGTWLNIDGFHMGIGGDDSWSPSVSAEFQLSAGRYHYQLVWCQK
# [10] = anti-trypanosomal activity in BESM host cells – imaging, CA-I/72 strain, bovine embryo skeletal muscle, dry powder, dose response (AID 651885); assay type: functional, cell-based
# [11] = target: Ras and Rab interactor 1/Tyrosine-protein kinase ABL1 (Homo sapiens, UniProt P00519+Q13671); assay type: functional;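 also: biochemical TR-FRET dose-response test measuring inhibition of binding between Rin1 and Abl proteins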
# Chain of Ras and Rab interactor 1/Tyrosine-protein kinase ABL1 (P00519 whole entry): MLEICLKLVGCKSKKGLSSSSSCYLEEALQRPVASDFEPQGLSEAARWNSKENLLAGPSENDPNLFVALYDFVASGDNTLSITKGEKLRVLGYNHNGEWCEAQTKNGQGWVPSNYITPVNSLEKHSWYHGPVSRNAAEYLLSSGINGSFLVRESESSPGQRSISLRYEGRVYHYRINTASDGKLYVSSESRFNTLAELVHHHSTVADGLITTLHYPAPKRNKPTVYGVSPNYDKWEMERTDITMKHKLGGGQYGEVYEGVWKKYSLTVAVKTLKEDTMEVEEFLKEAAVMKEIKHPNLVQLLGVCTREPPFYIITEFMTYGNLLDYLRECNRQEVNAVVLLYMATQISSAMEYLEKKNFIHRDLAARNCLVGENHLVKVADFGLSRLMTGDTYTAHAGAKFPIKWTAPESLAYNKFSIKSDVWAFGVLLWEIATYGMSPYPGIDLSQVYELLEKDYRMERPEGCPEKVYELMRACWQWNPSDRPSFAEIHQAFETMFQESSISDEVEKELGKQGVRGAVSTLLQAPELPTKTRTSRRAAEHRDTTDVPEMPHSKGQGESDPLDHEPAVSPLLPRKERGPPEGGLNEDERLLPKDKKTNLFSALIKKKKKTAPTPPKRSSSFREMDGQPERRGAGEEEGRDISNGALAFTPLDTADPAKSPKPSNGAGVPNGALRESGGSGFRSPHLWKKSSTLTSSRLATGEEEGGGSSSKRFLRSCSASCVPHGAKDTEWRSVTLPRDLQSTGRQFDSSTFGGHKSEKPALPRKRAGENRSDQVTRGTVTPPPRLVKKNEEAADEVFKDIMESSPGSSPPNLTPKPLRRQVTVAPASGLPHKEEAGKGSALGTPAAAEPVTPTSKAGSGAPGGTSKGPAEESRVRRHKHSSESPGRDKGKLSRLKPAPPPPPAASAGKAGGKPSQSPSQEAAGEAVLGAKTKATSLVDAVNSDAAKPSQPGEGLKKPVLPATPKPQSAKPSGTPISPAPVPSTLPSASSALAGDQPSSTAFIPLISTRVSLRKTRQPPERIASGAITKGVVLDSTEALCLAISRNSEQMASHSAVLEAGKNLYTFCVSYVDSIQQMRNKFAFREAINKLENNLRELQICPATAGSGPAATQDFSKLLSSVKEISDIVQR
# Chain of Ras and Rab interactor 1/Tyrosine-protein kinase ABL1 (Q13671 whole entry): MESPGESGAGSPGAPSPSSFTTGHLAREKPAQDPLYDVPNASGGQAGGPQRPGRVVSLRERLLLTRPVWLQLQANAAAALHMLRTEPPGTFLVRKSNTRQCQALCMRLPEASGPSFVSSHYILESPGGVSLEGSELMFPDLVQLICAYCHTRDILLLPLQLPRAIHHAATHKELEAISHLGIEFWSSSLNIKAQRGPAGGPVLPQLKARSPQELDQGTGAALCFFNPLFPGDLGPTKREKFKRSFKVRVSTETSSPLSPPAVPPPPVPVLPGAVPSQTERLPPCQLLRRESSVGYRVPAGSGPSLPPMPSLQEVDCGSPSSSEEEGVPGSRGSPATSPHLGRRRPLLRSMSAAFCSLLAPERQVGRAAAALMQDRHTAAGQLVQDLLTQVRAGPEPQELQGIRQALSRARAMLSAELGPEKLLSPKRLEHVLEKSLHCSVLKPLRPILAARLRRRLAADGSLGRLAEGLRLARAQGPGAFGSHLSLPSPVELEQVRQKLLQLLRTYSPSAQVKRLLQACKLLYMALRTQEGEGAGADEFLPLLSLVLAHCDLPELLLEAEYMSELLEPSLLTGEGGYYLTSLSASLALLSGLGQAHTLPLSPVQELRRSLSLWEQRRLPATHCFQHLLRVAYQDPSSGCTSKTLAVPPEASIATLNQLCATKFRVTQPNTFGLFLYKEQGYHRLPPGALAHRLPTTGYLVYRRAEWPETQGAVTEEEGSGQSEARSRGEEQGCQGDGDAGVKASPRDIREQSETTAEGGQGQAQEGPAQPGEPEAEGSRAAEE
# cells [12] = assay type: functional, cell-based
# [13] = target: T2, Trace amine-associated receptor 1 (Homo sapiens, UniProt Q96RJ0); assay: Counterscreen for agonists of the human trace amine associated receptor 1 (hTAAR1): Fluorescence-based cell-based high throughput dose response assay to identify hTAAR1 agonist that also desensitize TAAR1 receptor response.; assay type: functional
# T2 sequence (Q96RJ0 whole entry): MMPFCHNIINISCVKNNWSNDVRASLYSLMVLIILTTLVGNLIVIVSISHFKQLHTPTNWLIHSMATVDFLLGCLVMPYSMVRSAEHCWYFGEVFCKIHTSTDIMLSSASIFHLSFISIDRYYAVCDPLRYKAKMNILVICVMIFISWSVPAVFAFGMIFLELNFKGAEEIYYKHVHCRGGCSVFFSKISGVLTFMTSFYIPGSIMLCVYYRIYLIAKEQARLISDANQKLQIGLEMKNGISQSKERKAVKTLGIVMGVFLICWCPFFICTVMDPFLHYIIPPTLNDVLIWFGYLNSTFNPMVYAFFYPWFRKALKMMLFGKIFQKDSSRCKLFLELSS
# cells [14] = assay type: functional, cell-based; remark: listed apart in the source
# [15] = target: T2, Trace amine-associated receptor 1; assay: Fluorescence-based cell-based high throughput dose response assay to identify agonists of the human trace amine associated receptor 1 (TAAR1).; assay type: functional
# [16] = blockers of bursicon-stimulated LGR2 cAMP reporter – cell-based, HEK293, CRE-luciferase reporter, cherry pick, set 2, dose response (AID 743343); assay type: functional;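 also: transfected cells were stimulated with diluted bursicon conditioned medium after compound addition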
# [17] = viability loss in HEK293 cells – cell-based, plate reader, cherry-picked samples, cytotoxicity control, dose response (AID 743446); assay type: functional
# cells [18] = assay: cells; remark: listed apart in the source
# [19] = A549 cell cytotoxicity, dose response, cytotoxicity control, plate reader, cherry-pick, antagonist series (AID 743412); assay type: functional, cell-based
# [20] = blockade of melanocortin 4 receptor signaling – cell-based, plate reader, cherry pick, counter-screen for LGR2 antagonist project, dose response (AID 743444); assay type: functional;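 also: transfected HEK 293 cells stimulated with alpha-MSH peptide; potency of inhibitors of the alpha-MSH evoked signal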
# [21] = viability of uninfected HEp-2 cells – cell-based, HTS, cytotoxicity control for RSV inhibitor project, dose response (AID 2410); assay type: functional; conditions: human respiratory syncytial virus
# HeLa = assay: viability loss in HeLa cells – cell-based, ATP luminescence, cherry-pick samples, cytotoxicity control, dose response (AID 687004); assay type: functional; conditions: Homo sapiens
# [22] = target: Dual specificity protein phosphatase 3 (Homo sapiens, UniProt P51452); assay: VHR phosphatase inhibition, dose response, selectivity assay for STEP inhibitor project, biochemical (AID 602374); assay type: functional; conditions: read-out: IC50_Mean
# Chain of Dual specificity protein phosphatase 3 (P51452 whole entry): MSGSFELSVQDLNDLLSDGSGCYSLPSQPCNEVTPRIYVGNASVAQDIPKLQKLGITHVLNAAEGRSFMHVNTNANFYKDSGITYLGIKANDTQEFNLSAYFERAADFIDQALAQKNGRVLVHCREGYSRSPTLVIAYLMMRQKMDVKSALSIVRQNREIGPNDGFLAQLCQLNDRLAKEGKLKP
# [23] = target: T3, Tyrosine-protein phosphatase non-receptor type 22 (Homo sapiens, UniProt Q9Y2R2); assay: lymphoid phosphatase LYP inhibitors – biochemical, selectivity assay for STEP inhibitor project, dose response (AID 624241); assay type: functional
# T3 sequence (Q9Y2R2 whole entry): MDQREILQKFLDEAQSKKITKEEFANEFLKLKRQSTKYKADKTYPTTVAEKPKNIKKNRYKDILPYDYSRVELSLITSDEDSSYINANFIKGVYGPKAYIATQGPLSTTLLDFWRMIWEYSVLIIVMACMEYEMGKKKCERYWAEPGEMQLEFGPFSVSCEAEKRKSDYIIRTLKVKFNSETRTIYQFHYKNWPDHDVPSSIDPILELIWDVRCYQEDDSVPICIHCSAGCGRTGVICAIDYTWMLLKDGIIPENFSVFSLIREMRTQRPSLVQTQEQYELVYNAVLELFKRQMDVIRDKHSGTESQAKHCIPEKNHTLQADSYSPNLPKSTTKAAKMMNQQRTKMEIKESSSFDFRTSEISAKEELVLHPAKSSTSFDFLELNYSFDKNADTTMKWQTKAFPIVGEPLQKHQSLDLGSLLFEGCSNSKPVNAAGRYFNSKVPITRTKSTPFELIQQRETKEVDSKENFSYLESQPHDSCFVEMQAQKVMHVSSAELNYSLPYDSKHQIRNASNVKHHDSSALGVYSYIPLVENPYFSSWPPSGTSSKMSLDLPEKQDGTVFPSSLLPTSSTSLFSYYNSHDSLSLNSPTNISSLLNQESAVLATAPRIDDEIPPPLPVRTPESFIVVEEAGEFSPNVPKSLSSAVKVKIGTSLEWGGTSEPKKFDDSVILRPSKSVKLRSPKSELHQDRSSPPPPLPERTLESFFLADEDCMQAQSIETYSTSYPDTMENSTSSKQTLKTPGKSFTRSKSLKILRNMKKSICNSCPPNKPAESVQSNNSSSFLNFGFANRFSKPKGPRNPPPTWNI
# [24] = target: Tyrosine-protein phosphatase non-receptor type 5 (Homo sapiens, UniProt P54829); assay: PTPN5 enzyme inhibition – biochemical, fluorescence intensity, uHTS hits, confirmation (AID 602372); assay type: functional; conditions: read-out: IC50_Mean
# Chain of Tyrosine-protein phosphatase non-receptor type 5 (P54829 whole entry): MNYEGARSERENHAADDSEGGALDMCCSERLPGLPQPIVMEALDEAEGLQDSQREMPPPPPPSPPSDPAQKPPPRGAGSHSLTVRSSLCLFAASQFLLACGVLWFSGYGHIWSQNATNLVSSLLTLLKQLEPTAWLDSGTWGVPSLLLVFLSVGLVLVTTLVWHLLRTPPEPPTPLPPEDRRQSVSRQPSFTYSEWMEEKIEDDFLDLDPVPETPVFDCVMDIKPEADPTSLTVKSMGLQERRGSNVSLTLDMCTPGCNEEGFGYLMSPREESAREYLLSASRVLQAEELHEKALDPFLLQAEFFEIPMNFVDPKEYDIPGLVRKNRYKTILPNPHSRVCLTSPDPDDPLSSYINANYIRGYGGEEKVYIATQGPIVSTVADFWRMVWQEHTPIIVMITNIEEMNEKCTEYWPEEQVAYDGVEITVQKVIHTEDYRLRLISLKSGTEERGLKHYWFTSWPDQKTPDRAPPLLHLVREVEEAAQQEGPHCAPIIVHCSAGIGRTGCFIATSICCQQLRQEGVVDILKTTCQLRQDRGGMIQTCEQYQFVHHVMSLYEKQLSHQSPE
# [25] = target: Tyrosine-protein phosphatase non-receptor type 11 (Homo sapiens, UniProt Q06124); assay: PTPN11 enzyme inhibitors – biochemical, selectivity assay for STEP inhibitor project, dose response (AID 602367); assay type: functional; conditions: read-out: IC50_Mean
# Chain of Tyrosine-protein phosphatase non-receptor type 11 (Q06124 whole entry): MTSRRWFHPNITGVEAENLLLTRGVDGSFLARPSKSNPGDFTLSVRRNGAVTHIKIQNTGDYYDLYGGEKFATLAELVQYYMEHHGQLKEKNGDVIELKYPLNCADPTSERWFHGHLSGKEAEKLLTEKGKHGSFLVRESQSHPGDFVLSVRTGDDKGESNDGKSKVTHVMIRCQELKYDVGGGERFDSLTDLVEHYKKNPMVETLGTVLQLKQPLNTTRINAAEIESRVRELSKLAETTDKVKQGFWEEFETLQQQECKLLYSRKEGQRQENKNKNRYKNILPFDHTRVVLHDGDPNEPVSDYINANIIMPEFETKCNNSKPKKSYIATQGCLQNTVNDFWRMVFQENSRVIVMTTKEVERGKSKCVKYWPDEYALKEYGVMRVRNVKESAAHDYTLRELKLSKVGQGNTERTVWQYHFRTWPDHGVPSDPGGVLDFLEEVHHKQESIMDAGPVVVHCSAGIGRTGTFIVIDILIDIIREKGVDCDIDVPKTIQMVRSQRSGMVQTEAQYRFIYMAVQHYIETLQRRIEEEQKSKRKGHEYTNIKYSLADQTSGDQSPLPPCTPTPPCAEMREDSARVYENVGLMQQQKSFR
# [26] = toxicity toward HepG2 liver cells – cell-based, plate reader, cherry-pick, antagonist series, cytotoxicity control, dose response (AID 743416); assay type: functional
# cells [27] = assay type: functional, cell-based; remark: listed apart in the source
# [28] = target: T4, Nuclear receptor subfamily 0 group B member 1 (Homo sapiens, UniProt P51843); assay type: functional, cell-based;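 also: HEK293T cells transfected with SF-1 and DAX-1 plus StAR promoter luciferase reporter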
# T4 sequence (P51843 whole entry): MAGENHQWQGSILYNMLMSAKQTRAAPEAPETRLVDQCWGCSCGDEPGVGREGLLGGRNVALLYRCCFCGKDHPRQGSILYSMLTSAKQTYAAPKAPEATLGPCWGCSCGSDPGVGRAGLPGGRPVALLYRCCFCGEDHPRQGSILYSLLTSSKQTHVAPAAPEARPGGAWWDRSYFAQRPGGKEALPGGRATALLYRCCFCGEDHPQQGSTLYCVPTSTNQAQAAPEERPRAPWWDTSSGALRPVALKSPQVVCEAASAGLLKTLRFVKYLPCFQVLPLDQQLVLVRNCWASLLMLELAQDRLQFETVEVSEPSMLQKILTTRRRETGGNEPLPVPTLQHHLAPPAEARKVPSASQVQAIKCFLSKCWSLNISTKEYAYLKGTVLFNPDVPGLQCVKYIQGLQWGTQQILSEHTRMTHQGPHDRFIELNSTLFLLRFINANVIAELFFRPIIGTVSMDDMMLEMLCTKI
# [29] = target: 1-phosphatidylinositol 4,5-bisphosphate phosphodiesterase beta-3 (Homo sapiens, UniProt Q01970); assay: Fluorescence-based biochemical high throughput dose response assay to identify inhibitors of phospholipase C isozymes (PLC-B3).
# [30] = target: T5, Heat shock factor protein 1 (Mus musculus, UniProt P38532); assay: enhancement of HSF1-driven luciferase signal – cell-based, NIH3T3, luminescence, dose retest, confirmation (AID 435004); assay type: functional;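 also: stress induced by proteasome inhibitor MG132 added 30 min after compound; luciferase reporter driven by HSF1 response element in NIH3T3 cells; actives raise luminescence as potentiators of the MG132 stress response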
# T5 sequence (P38532 whole entry): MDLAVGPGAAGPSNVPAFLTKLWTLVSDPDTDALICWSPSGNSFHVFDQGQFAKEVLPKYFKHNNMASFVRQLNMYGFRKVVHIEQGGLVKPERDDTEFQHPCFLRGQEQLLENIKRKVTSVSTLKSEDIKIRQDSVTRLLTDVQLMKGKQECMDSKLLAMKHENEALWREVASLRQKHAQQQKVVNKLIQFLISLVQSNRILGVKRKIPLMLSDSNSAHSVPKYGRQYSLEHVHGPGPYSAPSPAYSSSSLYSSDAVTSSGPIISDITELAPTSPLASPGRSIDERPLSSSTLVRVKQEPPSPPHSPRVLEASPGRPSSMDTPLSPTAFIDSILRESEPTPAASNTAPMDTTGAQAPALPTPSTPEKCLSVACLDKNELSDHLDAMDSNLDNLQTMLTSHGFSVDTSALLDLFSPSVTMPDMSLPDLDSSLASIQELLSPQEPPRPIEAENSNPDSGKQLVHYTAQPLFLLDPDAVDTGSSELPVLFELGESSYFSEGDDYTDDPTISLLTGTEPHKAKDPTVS
# [31] = target: 1-phosphatidylinositol 4,5-bisphosphate phosphodiesterase gamma-1 (Homo sapiens, UniProt P19174); assay: Counterscreen for inhibitors of phospholipase C isozymes (PLC-B3): Fluorescence-based biochemical high throughput dose response assay to identify inhibitors of phospholipase C isozymes (PLC-gamma1).
smiles,measurement,setting,value
CCCCCn1c(=O)[nH]c2cc(C(=O)NCCN3C(C)CCCC3C)ccc2c1=O (stereo unspecified),AC50,[1],2.22 µM (active)
Cc1cccnc1NC(=S)NC(=O)c1cccs1,EC50,[2],190 nM (active)
same,EC50,cells [3],> 67.5 µM (inactive)
same,EC50,[4],< 100 nM (active)
same,EC50,H4,14.9 µM (active)
same,IC50,[5],> 66 µM (inactive)
same,EC50,[6],464 nM (active)
same,EC50,[7],> 67.5 µM (inactive)
same,EC50,[8],161 nM (active)
same,IC50,[9],> 66 µM (inactive)
O=C(COc1ccc(Cl)cc1)N1CCN(Cc2ccccc2)CC1,IC50,Beta-galactosidase,> 80 µM (inactive)
C[C@@H]1CN([C@@H](C)CO)C(=O)c2cc(Br)cnc2O[C@H]1CN(C)Cc1ccc2c(c1)OCO2,IC50,[10],> 20 µM (inactive)
OC[C@@H]1CN(Cc2ccc(Cl)cc2)C[C@H](n2cnc3c(NC4CC4)ncnc32)O1,IC50,[11],37.2 µM (inactive)
same,IC50,Beta-galactosidase,> 80 µM (inactive)
CCc1ccccc1S(=O)(=O)Cc1ccc(C(=O)NCCc2ccccc2)o1,IC50,cells [12],20 µM (inactive)
same,IC50,[13],6.38 µM (active)
same,EC50,cells [14],> 29.9 µM (inactive)
same,EC50,[15],4.46 µM (active)
COc1ccccc1N(Cc1ccccc1)S(=O)(=O)c1cccc(C(=O)Nc2cc(C)ccn2)c1,AC50,[16],4.92 µM (active)
same,AC50,[17],4.09 µM (active)
same,IC50,cells [18],38.5 µM (active)
same,AC50,[19],32.2 µM (active)
same,AC50,[20],3.95 µM (active)
same,CC50,[21],21.8 µM (active)
Cc1ccccc1C(=O)N[C@H](C(=O)N1CCC[C@H]1C(=O)NCCc1ccccc1Cl)C(C)C,IC50,cells [12],> 3.32 µM (active)
same,IC50,[13],3.15 µM (active)
same,EC50,cells [14],> 29.9 µM (inactive)
same,EC50,[15],1.64 µM (active)
Cc1ccc(N2CCN(C(CCc3ccccc3)C(=O)Nc3c(C)cccc3C)CC2)cc1 (stereo unspecified),AC50,HeLa,> 52 µM (inactive)
O=C(NN=Cc1ccccc1O)c1cccc([N+](=O)[O-])c1,IC50,[22],3.13 µM (active)
same,IC50,[23],> 100 µM (inactive)
same,IC50,[24],8.95 µM (active)
same,IC50,[25],2.39 µM (active)
COc1cc(/C=C2/SC(=S)N(CC(=O)O)C2=O)ccc1OCC(=O)Nc1ccc(C)c(C)c1,IC50,[22],4.32 µM (active)
same,IC50,[23],16.5 µM (active)
same,IC50,[24],6.72 µM (active)
same,IC50,[25],3.64 µM (active)
COc1ccc(CCNC(=O)C2CCN(S(=O)(=O)c3ccc(Cl)cc3)CC2)cc1OC,AC50,[26],35.2 µM (active)
same,AC50,[19],35.3 µM (active)
COc1ccc(-c2c(C(C)=O)c(C)nc3sc4c(c23)NC(c2ccccc2)NC4=O)cc1 (stereo unspecified),AC50,[1],2.66 µM (active)
COc1ccc(-c2cc(NC=O)c3ncc(-c4ccc(OC)c(OC)c4)n3c2)c(OC)c1,IC50,cells [27],> 67.6 µM (inactive)
same,IC50,[28],> 67.6 µM (inactive)
CC/C(NCc1ccco1)=C1/C(=O)NC(=O)N(C2CCCCC2)C1=O,IC50,[29],> 122 µM (inactive)
same,EC50,[30],> 260 µM (inactive)
same,IC50,[31],> 122 µM (inactive)
O=C(C1CCOCC1)N1C[C@H]2[C@@H](c3ccccc31)[C@@H](CO)N2Cc1ccccc1Cl,AC50,HeLa,> 52 µM (inactive)
